{"source": "patent US20140303092A1", "about": "(CHIMERIX, INC., priority 2011, published 2014)", "tested_on": "CMV", "experiment": "Study HDP-CDV-201: prevention or control of CMV infection in R+ HSCT recipients (efficacy)", "assay_type": "in vivo, human (adult allogeneic HSCT recipients)", "conditions": "for Rate of CMV Disease or End of Treatment CMV Infection (≧200 copies/ml): missing=infection; for Rate of CMV DNAemia ≧1000 copies/mL during the treatment period: post hoc; for Developed CMV DNAemia (≧100 copies/mL) during the treatment period: plasma CMV DNA negative at baseline", "experimental": "The clinical study of the current invention (HDP-CDV-201) was a 9-11 week randomized, placebo-controlled, double-blind, dose-escalation study (40 mg weekly [QW], 100 mg QW, 200 mg QW, 200 mg twice-weekly [BIW], and 100 mg BIW) of HDP-CDV for the prevention of CMV infection post-HCT. Treatment was initiated at the time of engraftment and continued until Week 13 post-HCT. HDP-CDV, at various doses, was active and well tolerated in the prevention CMV infection or disease.\nClinical Studies of HDP-CDV were performed and described in detail in the following Examples. For example, HDP-CDV-201 is a placebo-controlled, dose-escalating trial in HSCT CMV (R+) recipients, evaluating the ability of HDP-CDV to prevent or control CMV infection was carried out. Five cohorts were established in which participants or subjects received either placebo or the HDP-CDV orally, in doses ranging from 40 mg weekly (QW) to 200 mg twice weekly (BIW). Subjects who were post-HSCT were enrolled at the time of engraftment and randomized to HDP-CDV or placebo (3 to 1 ratio) and received blinded therapy until approximately 100 day post-transplantation. HDP-CDV doses were 40 mg QW, 100 mg QW, 200 mg QW, 200 mg BIW and 100 mg BIW. Escalation to the next dose was decided by the data monitoring committee after review of the safety data from the previous Cohort. Subjects who developed CMV disease or CMV infection requiring pre-emptive therapy with local standard of care were discontinued from blinded therapy and followed for 4 weeks. Subjects who completed treatment with blinded therapy were followed for 8 weeks post-therapy.\nThe primary endpoint was defined as the incidence of CMV disease at any time during treatment or CMV DNAemia≧200 copies/mL at the end of treatment. All subjects who received at least one dose of drug/placebo and had at least one efficacy evaluation post baseline were included in the primary analysis, regardless of their CMV DNAemia status (negative or positive) at baseline (mITT population). Results for the pooled HDP-CDV Cohorts and for each Cohort separately were analyzed versus that for pooled placebo.\nThe primary efficacy measure for this study was treatment failure, defined as the occurrence of CMV infection, defined as CMV DNAemia>200 copies/mL at the End of Treatment or diagnosis of CMV disease at any time during the treatment period. For the analysis, the following definitions apply:\nFor subjects who completed the treatment phase of the study, the End of Treatment was defined as the latest assessment from date of the last dose of study drug and up to 7 days for QW dosing, or the date of the last dose of study drug and up to 4 days for BIW dosing. For subjects who discontinued during the treatment phase of the study, the End of Treatment was defined as the date of the last dose of study drug.\nThe time to event was defined as the period between FDD and date of first occurrence of the event of interest (inclusive). The events included onset of CMV DNAemia, onset of CMV disease, and discontinuation because of excluded anti-CMV medications. Time to event/onset was derived as (the event/onset date—FDD)+1.\nAs detailed in the Statistical Analysis Plan, a modified CMV stratum was defined prior to conducting the statistical analysis based upon polymerase chain reaction (PCR) results from the central laboratory. If any positive CMV DNA value in plasma was collected before the first dose of study drug (including Screening, Pre-dose, (combined Screening/Pre-dose), CMV for stratification, and FDD), then the subject was placed into the modified CMV positive (≧100 copies/mL) stratum, otherwise the subject was in the modified CMV negative stratum. […]", "key": {"[1]": {"conditions": "100 mg BIW, modified CMV negative stratum"}, "[2]": {"conditions": "100 mg BIW, whole study period, CMV DNA negative at baseline"}, "[3]": {"conditions": "100 mg QW, CMV modified strata: negative"}, "[4]": {"conditions": "100 mg QW, CMV modified strata: positive"}, "[5]": {"conditions": "100 mg QW, active treatment period"}, "[6]": {"conditions": "100 mg QW, modified CMV negative stratum"}}, "note": "“And” between values parts separate entries of the source, which are not always exact repeats. Equal entries are not always repeated.", "data": [{"smiles": "CCCCCCCCCCCCCCCCOCCCOP(=O)(O)COC(CO)Cn1ccc(N)nc1=O", "note": "(stereo not drawn) [HDP-CDV]", "values": [{"measurement": "Incidence of CMV disease or initiation of anti-CMV preemptive therapy", "setting": "100 mg BIW, mITT", "result": 14, "unit": "%"}, {"measurement": "Subjects Receiving Antiviral Therapy and/or had CMV disease", "setting": "100 mg BIW, mITT", "result": "7 (14.0%) subjects (%)"}, {"measurement": "Subjects without a CMV event", "setting": "100 mg BIW, mITT", "result": "43 (86.0%) subjects (%)"}, {"measurement": "Time to Antiviral Therapy, Median", "setting": "100 mg BIW, mITT", "result": 23.0, "unit": "days"}, {"measurement": "Rate of CMV Disease or End of Treatment CMV Infection (≧200 copies/ml)", "setting": "100 mg BIW, mITT", "result": 10, "unit": "%"}, {"measurement": "Rate of CMV DNAemia ≧1000 copies/mL during the treatment period", "setting": "100 mg BIW, mITT", "result": 8, "unit": "%"}, {"measurement": "Time to Antiviral Therapy, Mean", "setting": "100 mg BIW, mITT, censored values not included", "result": 23.1, "unit": "days"}, {"measurement": "% CMV Event Rate: Incidence of CMV DNAemia >100 copies/mL During Treatment (Fisher analysis, ref 14.3.3.2.1)", "setting": "[1]", "result": "9 (22.5%) subjects (%)"}, {"measurement": "% CMV Event Rate: Incidence of CMV DNAemia ≧1,000 copies/mL at any time during treatment", "setting": "[1]", "result": "0 subjects (%)"}, {"measurement": "% CMV Event Rate: onset of CMV DNAemia During Whole Study", "setting": "[1]", "result": "14 (33.3%) subjects (%)"}, {"measurement": "Combined CMV event rate (CMV disease, viremia requiring treatment, viremia ≧1000 copies/mL)", "setting": "[1]", "result": 12.2, "unit": "%"}, {"measurement": "Subjects Who Had CMV-related Event (CMV disease, CMV DNAemia ≧1,000 c/mL or initiation of anti-CMV treatment)", "setting": "[1]", "result": "5 (12.2%) subjects (%)"}, {"measurement": "Subjects without a CMV-related event", "setting": "[1]", "result": "36 (87.8%) subjects (%)"}, {"measurement": "Developed CMV DNAemia (≧100 copies/mL) during the treatment period", "setting": "100 mg BIW, mITT", "result": "10 (23.8.%) N(%) and 10 (23.8%) N(%)"}, {"measurement": "Time to CMV DNAemia (≧100 copies/mL), Median", "setting": "100 mg BIW, treatment period, CMV DNA negative at baseline", "result": 20.0, "unit": "days"}, {"measurement": "Time to CMV DNAemia (≧100 copies/mL), Mean", "setting": "100 mg BIW, treatment period, CMV DNA negative at baseline, censored values not included", "result": 28.8, "unit": "days"}, {"measurement": "Number of Subjects who had CMV DNAemia (≧100 copies/mL) by the end of study", "setting": "[2]", "result": 14}, {"measurement": "Time to CMV DNAemia (≧100 copies/mL), Mean", "setting": "[2]", "result": 42.8, "unit": "days"}, {"measurement": "Time to CMV DNAemia (≧100 copies/mL), Median", "setting": "[2]", "result": 32.5, "unit": "days"}, {"measurement": "Incidence of composite endpoint (initiation of anti-CMV therapy or CMV disease or CMV DNAemia >1,000 copies/mL)", "setting": "100 mg QW", "result": 21.7, "unit": "%"}, {"measurement": "Difference (HDP-CDV minus placebo) in infection rate", "setting": "[3]", "result": "−16.7", "unit": "%"}, {"measurement": "Difference (HDP-CDV minus placebo) in rate of CMV DNAemia ≧1,000 copies/ml", "setting": "[3]", "result": "−23.2", "unit": "%"}, {"measurement": "Rate of CMV DNAemia ≧1,000 copies/ml during the treatment period", "setting": "[3]", "result": 8.7, "unit": "%"}, {"measurement": "Rate of CMV Disease or End of Treatment CMV Infection", "setting": "[3]", "result": 13.0, "unit": "%"}, {"measurement": "Difference (HDP-CDV minus placebo) in rate of CMV DNAemia ≧1,000 copies/mL", "setting": "[4]", "result": 16.7, "unit": "%"}, {"measurement": "Rate of CMV DNAemia ≧1,000 copies/mL during the treatment period", "setting": "[4]", "result": 100.0, "unit": "%"}, {"measurement": "Rate of CMV Disease or End of Treatment CMV Infection", "setting": "100 mg QW, aGVHD randomization strata: negative", "result": 24.0, "unit": "%"}, {"measurement": "Difference (HDP-CDV minus placebo) in infection rate", "setting": "100 mg QW, aGVHD strata: negative", "result": "−8.1", "unit": "%"}, {"measurement": "Discontinuation: Emergence of CMV disease", "setting": "[5]", "result": "3 Subject n (%) and 3 (11.1%) Subject n (%)"}, {"measurement": "Discontinuation: Initiation of alternate CMV therapy", "setting": "[5]", "result": "4 (14.8%) Subject n (%)"}, {"measurement": "Difference (HDP-CDV minus placebo) in rate of CMV DNAemia ≧1000 copies/mL", "setting": "100 mg QW, mITT", "result": "−20.2", "unit": "%"}, {"measurement": "Difference (HDP-CDV minus placebo) in rate of CMV disease or end of treatment CMV infection", "setting": "100 mg QW, mITT", "result": "−15.1", "unit": "%"}, {"measurement": "Subjects Receiving Antiviral Therapy and/or had CMV disease", "setting": "100 mg QW, mITT", "result": "7 (25.9%) subjects (%)"}, {"measurement": "Subjects without a CMV event", "setting": "100 mg QW, mITT", "result": "20 (74.1%) subjects (%)"}, {"measurement": "Time to Antiviral Therapy, Median", "setting": "100 mg QW, mITT", "result": 41.0, "unit": "days"}, {"measurement": "Rate of CMV Disease or End of Treatment CMV Infection (≧200 copies/ml)", "setting": "100 mg QW, mITT", "result": "22% and 22.2%"}, {"measurement": "Rate of CMV DNAemia ≧1000 copies/mL during the treatment period", "setting": "100 mg QW, mITT", "result": 22.2, "unit": "%"}, {"measurement": "Time to Antiviral Therapy, Mean", "setting": "100 mg QW, mITT, censored values not included", "result": 41.9, "unit": "days"}, {"measurement": "% CMV Event Rate: Incidence of CMV DNAemia >100 copies/mL During Treatment (Fisher analysis, ref 14.3.3.2.1)", "setting": "[6]", "result": "5 (21.7%) subjects (%)"}, {"measurement": "% CMV Event Rate: Incidence of CMV DNAemia ≧1,000 copies/mL at any time during treatment", "setting": "[6]", "result": "2 (8.7%) subjects (%)"}, {"measurement": "% CMV Event Rate: onset of CMV DNAemia During Whole Study", "setting": "[6]", "result": "8 (34.8%) subjects (%)"}, {"measurement": "Subjects Who Had CMV-related Event (CMV disease, CMV DNAemia ≧1,000 c/mL or initiation of anti-CMV treatment)", "setting": "[6]", "result": "5 (21.7%) subjects (%)"}, {"measurement": "Subjects without a CMV-related event", "setting": "[6]", "result": "18 (78.3%) subjects (%)"}, {"measurement": "Developed CMV DNAemia (≧100 copies/mL) during the treatment period", "setting": "100 mg QW, mITT", "result": "5 (21.7%) N(%)"}, {"measurement": "Time to CMV DNAemia (≧100 copies/mL), Median", "setting": "100 mg QW, treatment period, CMV DNA negative at baseline", "result": 30.0, "unit": "days"}]}]}
